Values quoted from earlier work as cited in PubChem BioAssay AID1259409 (Chemical Carcinogenesis Research Information System (CCRIS), 2018).

System: rodent chemically induced tumor inhibition, incidence and multiplicity
Assay: CCRIS tumor inhibitor studies
Settings: Dose [Inhibitor]: 0

Question: What does the source list for `COc1cc(/C=C/C(=O)CC(=O)/C=C/c2ccc(O)c(OC)c2)ccc1O`?
Answer: tumour outcome (control, treated, inhibition, significance) (Carcinogen: AZOXYMETHANE, 25843-45-2, 4% COMMERCIAL GRADE CURCUMIN IN DIET FOR 35 WK BEGINNING 2 WK PRIOR TO CARCINOGEN TREATMENT (STUDY DURATION: 35 WK), Route [Inhibitor]: ORAL, Species: MOUSE, Strain/Sex: CF-1/FEMALE, Target Tissue: Type of Lesion: COLON: ADENOCARCINOMA, Dose [Carcinogen]: 10 MG/KG BW IN 100 µL NORMAL SALINE 1/WK FOR 6 WK, Promoter: NONE USED): 40%, 15%, 63%, not significant; tumour outcome (control, treated, inhibition, significance) (Carcinogen: AZOXYMETHANE, 25843-45-2, 4% COMMERCIAL GRADE CURCUMIN IN DIET FOR 35 WK BEGINNING 2 WK PRIOR TO CARCINOGEN TREATMENT (STUDY DURATION: 35 WK), Route [Inhibitor]: ORAL, Species: MOUSE, Strain/Sex: CF-1/FEMALE, Target Tissue: Type of Lesion: COLON: ADENOMA, Dose [Carcinogen]: 10 MG/KG BW IN 100 µL NORMAL SALINE 1/WK FOR 6 WK, Promoter: NONE USED): 93%, 56%, 40%, not significant; tumour outcome (control, treated, inhibition, significance) (Carcinogen: AZOXYMETHANE, 25843-45-2, 200O PPM IN DIET FOR 56 WK BEGINNING 2 WK PRIOR TO CARCINOGEN TREATMENT (STUDY DURATION: 56 WK), Route [Inhibitor]: ORAL, Species: RAT, Strain/Sex: F344/MALE, Target Tissue: Type of Lesion: COLON: ADENOCARCINOMA, Dose [Carcinogen]: 15 MG/KG BW 1/WK FOR 2 WK, Promoter: NONE USED): 81%, 47%, 42%, p<0.004; tumour outcome (control, treated, inhibition, significance) (Carcinogen: BENZO[A]PYRENE, 50-32-8, 0.5% COMMERCIAL GRADE CURCUMIN IN DIET FOR 7 WK BEGINNING 2 WK PRIOR TO CARCINOGEN TREATMENT (STUDY DURATION: 30 WK), Route [Inhibitor]: ORAL, Species: MOUSE, Strain/Sex: STRAIN-A/FEMALE, Target Tissue: Type of Lesion: FORESTOMACH: PAPILLOMA, Dose [Carcinogen]: 1.5 MG IN 100 µL CORN OIL 1/WK FOR 4 WK, Promoter: NONE USED): 97%, 87%, 10%, not significant; tumour outcome (control, treated, inhibition, significance) (Carcinogen: BENZO[A]PYRENE, 50-32-8, 0.5% COMMERCIAL GRADE CURCUMIN IN DIET FOR 7 WK BEGINNING 2 WK PRIOR TO CARCINOGEN TREATMENT (STUDY DURATION: 30 WK), Route [Inhibitor]: ORAL, Species: MOUSE, Strain/Sex: STRAIN-A/FEMALE, Target Tissue: Type of Lesion: FORESTOMACH: SQUAMOUS CELL CARCINOMA, Dose [Carcinogen]: 1.5 MG IN 100 µL CORN OIL 1/WK FOR 4 WK, Promoter: NONE USED): 41%, 23%, 44%, not significant; tumour outcome (control, treated, inhibition, significance) (Carcinogen: BENZO[A]PYRENE, 50-32-8, 0.5% COMMERCIAL GRADE CURCUMIN IN DIET FOR 23 WK BEGINNING 1 WK POST CARCINOGEN TREATMENT (STUDY DURATION: 30 WK), Route [Inhibitor]: ORAL, Species: MOUSE, Strain/Sex: STRAIN-A/FEMALE, Target Tissue: Type of Lesion: FORESTOMACH: PAPILLOMA, Dose [Carcinogen]: 1.5 MG IN 100 µL CORN OIL 1/WK FOR 4 WK, Promoter: NONE USED): 97%, 89%, 8%, not significant; tumour outcome (control, treated, inhibition, significance) (Carcinogen: BENZO[A]PYRENE, 50-32-8, 0.5% COMMERCIAL GRADE CURCUMIN IN DIET FOR 23 WK BEGINNING 1 WK POST CARCINOGEN TREATMENT (STUDY DURATION: 30 WK), Route [Inhibitor]: ORAL, Species: MOUSE, Strain/Sex: STRAIN-A/FEMALE, Target Tissue: Type of Lesion: FORESTOMACH: SQUAMOUS CELL CARCINOMA, Dose [Carcinogen]: 1.5 MG IN 100 µL CORN OIL 1/WK FOR 4 WK, Promoter: NONE USED): 41%, 30%, 27%, not significant; tumour outcome (control, treated, inhibition, significance) (Carcinogen: BENZO[A]PYRENE, 50-32-8, 2% COMMERCIAL GRADE CURCUMIN IN DIET FOR 7 WK BEGINNING 2 WK PRIOR TO CARCINOGEN TREATMENT (STUDY DURATION: 30 WK), Route [Inhibitor]: ORAL, Species: MOUSE, Strain/Sex: STRAIN-A/FEMALE, Target Tissue: Type of Lesion: FORESTOMACH: PAPILLOMA, Dose [Carcinogen]: 1.5 MG IN 100 µL CORN OIL 1/WK FOR 4 WK, Promoter: NONE USED): 97%, 83%, 14%, not significant; tumour outcome (control, treated, inhibition, significance) (Carcinogen: BENZO[A]PYRENE, 50-32-8, 2% COMMERCIAL GRADE CURCUMIN IN DIET FOR 7 WK BEGINNING 2 WK PRIOR TO CARCINOGEN TREATMENT (STUDY DURATION: 30 WK), Route [Inhibitor]: ORAL, Species: MOUSE, Strain/Sex: STRAIN-A/FEMALE, Target Tissue: Type of Lesion: FORESTOMACH: SQUAMOUS CELL CARCINOMA, Dose [Carcinogen]: 1.5 MG IN 100 µL CORN OIL 1/WK FOR 4 WK, Promoter: NONE USED): 41%, 10%, 76%, not significant; tumour outcome (control, treated, inhibition, significance) (Carcinogen: BENZO[A]PYRENE, 50-32-8, 2% COMMERCIAL GRADE CURCUMIN IN DIET FOR 23 WK BEGINNING 1 WK POST CARCINOGEN TREATMENT (STUDY DURATION: 30 WK), Route [Inhibitor]: ORAL, Species: MOUSE, Strain/Sex: STRAIN-A/FEMALE, Target Tissue: Type of Lesion: FORESTOMACH: PAPILLOMA, Dose [Carcinogen]: 1.5 MG IN 100 µL CORN OIL 1/WK FOR 4 WK, Promoter: NONE USED): 97%, 79%, 19%, not significant; tumour outcome (control, treated, inhibition, significance) (Carcinogen: BENZO[A]PYRENE, 50-32-8, 2% COMMERCIAL GRADE CURCUMIN IN DIET FOR 23 WK BEGINNING 1 WK POST CARCINOGEN TREATMENT (STUDY DURATION: 30 WK), Route [Inhibitor]: ORAL, Species: MOUSE, Strain/Sex: STRAIN-A/FEMALE, Target Tissue: Type of Lesion: FORESTOMACH: SQUAMOUS CELL CARCINOMA, Dose [Carcinogen]: 1.5 MG IN 100 µL CORN OIL 1/WK FOR 4 WK, Promoter: NONE USED): 41%, 14%, 66%, not significant; tumour outcome (control, treated, inhibition, significance) (Carcinogen: BENZO[A]PYRENE, 50-32-8, 3 UMOL IN ACETONE 1/WK FOR 10 WK APPLIED 5 MIN PRIOR TO EACH CARCINOGEN DOSE (STUDY DURATION: 32 WK), Route [Inhibitor]: DERMAL, Species: MOUSE, Strain/Sex: CD-1/FEMALE, Target Tissue: Type of Lesion: SKIN: TUMORS, Dose [Carcinogen]: 20 NMOL 1/WK FOR 10 WK, Promoter: 12-O-TETRADECANOYLPHORBOL-13-ACETATE, 16561-29-8): 100%, 75%, 25%, not calculated; tumour outcome (control, treated, inhibition, significance) (Carcinogen: BENZO[A]PYRENE, 50-32-8, 5% IN DIET FOR 8 WK BEGINNING 2 WK PRIOR TO CARCINOGEN TREATMENT (STUDY DURATION: 20 WK), Route [Inhibitor]: ORAL, Species: MOUSE, Strain/Sex: SWISS/FEMALE, Target Tissue: Type of Lesion: FORESTOMACH: TUMOR, Dose [Carcinogen]: 1 MG IN 0.1 ML PEANUT OIL 2/WK FOR 4 WK, Promoter: NONE USED): 20/20 (100%), 12/20 (60%), 40%, p<0.001; tumour outcome (control, treated, inhibition, significance) (Carcinogen: BENZO[A]PYRENE, 50-32-8, 10 UMOL IN ACETONE 1/WK FOR 10 WK APPLIED 5 MIN PRIOR TO EACH CARCINOGEN DOSE (STUDY DURATION: 32 WK), Route [Inhibitor]: DERMAL, Species: MOUSE, Strain/Sex: CD-1/FEMALE, Target Tissue: Type of Lesion: SKIN: TUMORS, Dose [Carcinogen]: 20 NMOL 1/WK FOR 10 WK, Promoter: 12-O-TETRADECANOYLPHORBOL-13-ACETATE, 16561-29-8): 100%, 82%, 18%, not calculated
